Assay [1] relates to maize callus tissue (unselected parent, A188 x B73). The assay is described as follows: Callus culture growth inhibition by 5MT, unselected parent tissue. Type of assay: cell-based. To be noted: for IC50: Zea mays, 672 h. On the procedure: Friable, embryogenic maize callus cultures were initiated from hybrid immature embryos produced by pollination of inbred line A188 plants (University of Minnesota, Crop Improvement Association) with pollen of Inbred line B73 plants (Iowa State University). Ears were harvested when embryos had reached a length of 1.5 to 2.0 mm. The whole ear was surface sterilized in […] commercial bleach (2.63% w/v sodium hypochlorite) for 20 minutes at room temperature. The ears were then washed with sterile distilled, deionized water. Immature embryos were aseptically isolated and placed on nutrient agar initiation/maintenance media with the root/shoot axis exposed to the media. Initiation/maintenance media consisted of N6 basal media (Chih-ching in Proceedings of Symposium on Plant Tissue Culture, May 25-30, 1978, Science Press, Peking, pp. 43-50) with 2% (w/v) sucrose, 1.5 mg per liter 2,4-dichlorophenoxyacetic acid (2,4-D), 6 mM proline, and 0.9% (w/v) agar.
The immature embryos were incubated at 26° C. in the dark. Cell proliferations from the scutellum of the immature embryos were evaluated for friable consistency and the presence of well defined somatic embryos. Tissue with this morphology was transferred to fresh media 10 to 14 days after the initial plating of the immature embryos. The tissue was then subcultured on a routine basis every 12 to 16 days. Sixty to eighty milligram quantities of tissue were removed from pieces of tissue that had reached a size of approximately one gram and transferred to fresh media. Subculturing always involved careful visual monitoring to be sure that only tissue of the correct morphology was maintained. The presence of the somatic embryos ensured that the cultures would give rise to plants under the proper conditions.
(§1) The tryptophan analog, 5-methyltryptophan (5MT), was used for selection of tryptophan overproducer mutants as discussion in Section 5 supra. The effect of various concentrations of 5MT on callus growth on solid media was determined. Quantities of tissue averaging 50 mg in size were transferred to nutrient agar maintenance media containing 5MT concentrations ranging from 1.0 to 200 μM. Four tissue pieces were placed on each plate with four plates per analog concentration. After 28 days growth, the tissue was weighed again.

Assay [2] relates to maize line C28 callus. The assay is described as follows: Four week callus growth inhibition study, resistant line C28. Type of assay: cell-based. On the procedure: as §1
For each transfer all tissue showing growth and somatic embryo forming ability were placed on fresh media. At the third transfer, the concentration of 5MT was increased to 100 μM. During the course of the selection process, the total number of lines decreased as the analog mediated growth inhibition became more intense. Two lines however, increased in size and by the end of the fourth month of selection were identified as resistant to 5MT. These cell lines were identified as maize line C28 and C66. […]
Four week growth inhibition studies were carried out with 5MT as described supra. The level of 5MT giving 50% growth inhibition was determined to be between 300 and 400 μM for the C28 line compared to 3 to 10 μM for unselected parent tissue. […]

Assay [3] relates to maize line C66 callus. Briefly: Callus growth inhibition study, resistant line C66. Type of assay: cell-based. To be noted: C66, 5MT at 100 μM or below. Here is the method: as §1
For each transfer all tissue showing growth and somatic embryo forming ability were placed on fresh media. At the third transfer, the concentration of 5MT was increased to 100 μM. During the course of the selection process, the total number of lines decreased as the analog mediated growth inhibition became more intense. Two lines however, increased in size and by the end of the fourth month of selection were identified as resistant to 5MT. These cell lines were identified as maize line C28 and C66. […] Throughout this selection process, the selected cell lines maintained a friable appearance that was similar to the appearance of the original parent cell line.

The test system of assay [4] is anthranilate synthase (crude callus extracts: AB108 control, K17 line of C28). The assay is described as follows: Anthranilate synthase assay with 5MT as enzyme inhibitor. Type of assay: biochemical, maize. To be noted: 30° C., 30 minutes, 0.25 mM chorismate, 20 mM L-glutamine; FIG. 4. On the procedure: Assays were conducted to determine whether 5MT resistance was conferred by an alteration in the gene that codes for the anthranilate synthase enzyme. Crude enzyme extract of AB108 control callus and the selected K17 line of C28 callus were prepared as described below. The K17 line of C28 was derived from a regenerated C28 plant crossed with a control plant and then self-pollinated. Immature embryos were then cultured and a callus line developed as described previously.
Plant callus tissue was ground using a mortar and pestle and extracted with 0.2 M Tris-HCl, pH 8.2, 60% glycerol, 0.2 mM dithiothreitol (DTT), 0.2 mM ethylenediaminetetraacetic acid (EDTA), 1.0 mM magnesium sulfate (MgSO4), 20 mM sodium chloride (NaCl) and 1.0 mM L-tryptophan. One ml extraction buffer was used per 2 g callus. The extract was centrifuged at 10,000×g for 25 minutes at 4° C. The supernatant was applied to a 3 cm×15 cm Bio Gel-P6 column (Bio-Rad, Richmond, Calif.) equilibrated with 0.1 M Tris-HCl, pH 7.6, 10% glycerol, 0.1 mM DTT and 0.1 mM EDTA and eluted with the same buffer. 0.75 ml fractions were collected and fractions containing protein were pooled. […]
Assays were conducted in 1 ml volumes as follows. […] The fluorescence due to the production of anthranilate was measured in the 3.5 ml extractant using a Kratos FS950 fluorimeter (Kratos Analytical Instruments, Ramsey, N.J.).

Read-outs that look alike come from different tables or passages of the source.

`Cc1ccc2[nH]cc(C[C@H](N)C(=O)O)c2c1` [5MT, 5-methyltryptophan]: the IC50 in assay [1] (callus on solid maintenance media, 28 days growth, 1.0 to 200 μM 5MT, read-out: 5MT concentration giving half maximal inhibition of growth rate) lay in the range of 3 to 10 µM; in assay [1] (unselected parent tissue, four week growth inhibition, read-out: Level of 5MT giving 50% growth inhibition), 3 to 10 µM; in assay [2] (Zea mays, 672 h, C28 line, four week growth inhibition, read-out: Level of 5MT giving 50% growth inhibition), 300 to 400 µM. Further, in assay [1] (analog concentrations of 100 and 200 μM, 28 days), the Cell death result is recorded as “Cell death was observed”. Moreover, the “Growth inhibition by the analog compared to parental cell line AB1 (FIG. 2)” value in assay [2] (C28, 5MT at 100 μM or below) is listed as “no longer seriously inhibited”; in assay [3] it was “no longer seriously inhibited”. Also, the “Fold higher 5MT level needed for 50% inhibition of C28 AS compared with control AS” value in assay [4] came to 10 fold.

As to `N[C@@H](Cc1c[nH]c2ccccc12)C(=O)O` [Tryptophan], in assay [1] (tryptophan added to 5MT-inhibited callus), the “Reversal of growth inhibitory effects of 5MT” value was “reverse all the growth inhibitory effects of 5MT”.
